# What was measured:
# [1] = Cyclic voltammetry of Tb, HEDP and ZOL; conditions: glassy carbon electrode, Ag/AgCl reference, carbonate buffer pH 9
# [2] = Radioelectrophoresis (net charge of complexes); assay type: physicochemical; conditions: 0.05 M phosphate buffer pH 7.4, 250 V, 1 h
# Description: Radioelectrophoresis was employed to determine the net charge of the ^161Tb-labeled diphosphonate complexes and to confirm successful radiolabeling. For each sample, 5 μL of the radiolabeled complex or a control solution of ^161TbCl3 was applied to the center of Whatman 3MM chromatography paper strips (2 × 25 cm), which had been pre-soaked in 0.05 M phosphate buffer (pH 7.4). The strips were placed in an electrophoresis chamber filled with the same phosphate buffer, and electrophoresis was carried out at 250 V for 1 h using a Gelman Instrument electrophoresis system (Gelman Instrument Co., Ann Arbor, MI, USA). After radioelectrophoresis, each strip was dried and scanned using a TLC scanner. This method allowed the determination of the migration pattern of the radiolabeled species compared to free ^161Tb^3+, providing information about the charge and integrity of the formed complexes.
# [3] = Biodistribution in healthy Wistar rats; assay type: in vivo; conditions: i.v.
# Description: All animal experiments were conducted using healthy Wistar rats weighing 100–120 g. The rats were obtained from the Military Medical Academy (Belgrade, Serbia). All procedures involving animals were approved by the Ethical Committee of the Vinča Institute of Nuclear Sciences (permission No. 002225501 2025, issued on 20 May 2025) and were performed by the Directive 2010/63/EU of the European Parliament and of the Council of 22 September 2010 [50] on the protection of animals used for scientific purposes, as well as national animal welfare laws.
# A total of 0.74 MBq of each ^161Tb-labeled compound (^161Tb-HEDP and ^161Tb-ZOL) and free ^161TbCl3 (at pH 7.5 and pH 4.5) was prepared in a final injection volume of 0.1 mL. Physiological saline was added to adjust the concentration to 10 µg of radiolabeled complex per 0.1 mL. Each formulation was administered intravenously via the lateral tail vein.
# Animals (n = 3 per time point) were sacrificed at predetermined intervals: 2 h, 24 h, and 7 d post-injection, depending on the study group. Euthanasia was performed by intraperitoneal injection of a ketamine/xylazine overdose. Immediately after sacrifice, major organs and tissues (heart, lungs, liver, spleen, kidneys, stomach, intestines, muscle, and femur) were collected, weighed, and assessed for radioactivity using a gamma counter. The biodistribution of radiolabeled compounds was expressed as the percentage of the injected dose per gram of tissue (%ID/g), calculated by comparing the sample activity to that of the standard representing 100% of the injected dose. All data are presented as mean ± standard deviation (SD).
# [4] = 2 h post-injection (initial), injected at pH 4.5
# [5] = 2 h post-injection, injected at pH 4.5
# [6] = 2 h post-injection, injected at pH 7.5
# [7] = 7 d post-injection, injected at pH 7.5
compound,measurement,setting,value
"O.O.O.O.O.O.[Cl-].[Cl-].[Cl-].[Tb+3] [Tb, terbium(III) chloride hexahydrate]",Second Oxidation Pot.,[1],1.39 V
same,Second Reduction Pot.,[1],−0.56 V
[161Tb+3].[Cl-].[Cl-].[Cl-] [^161TbCl3],Migration / net charge in radioelectrophoresis,[2],remained at the point of application
same,Liver,[3]; [4],1.88 ± 0.31 %ID/g
same,Spleen uptake,[3]; [4],0.37 ± 0.12 %ID/g
same,Blood,[3]; [5],0.02 ± 0.01 %ID/g
same,Bone uptake,[3]; [5],7.31 ± 0.32 %ID/g
same,Bone-to-kidney ratio,[3]; [5],3.97
same,Bone-to-liver ratio,[3]; [5],3.89
same,Muscle,[3]; [5],0.08 ± 0.05 %ID/g
same,Other tissues,[3]; [5],Minimal uptake
same,Kidney,"[3]; 2 h post-injection, injected at pH 4.5, listed as 161TbCl3 (pH 4.5)",1.84 ± 0.07 %ID/g
same,Bone uptake,[3]; [6],6.53 ± 0.22 %ID/g
same,Kidney uptake,[3]; [6],1.03 ± 0.06 %ID/g
same,Liver uptake,[3]; [6],6.99 ± 0.21 %ID/g
same,Spleen uptake,[3]; [6],4.88 ± 0.15 %ID/g
same,Bone uptake,"[3]; 24 h post-injection, injected at pH 7.5",6.61 ± 0.14 %ID/g
same,Bone uptake,"[3]; 7 d post-injection, injected at pH 4.5",7.18 ± 0.12 %ID/g
same,Bone uptake,[3]; [7],6.68 ± 0.29 %ID/g
same,Kidney uptake,[3]; [7],0.60 ± 0.02 %ID/g
same,Liver uptake,[3]; [7],2.33 ± 0.02 %ID/g
same,Spleen uptake,[3]; [7],0.79 ± 0.02 %ID/g
"O=P(O)(O)C(O)(Cn1ccnc1)P(=O)(O)O [ZOL, 1-hydroxy-2-(1H-imidazol-1-yl)ethane-1,1-diyldiphosphonic acid]",First Oxidation Pot.,[1],0.93 V
same,First Reduction Pot.,[1],0.41 V
same,Second Oxidation Pot.,[1],1.27 V
same,Second Reduction Pot.,[1],−0.54 V
"CC(O)(P(=O)(O)O)P(=O)(O)O [HEDP, 1-Hydroxyethylidene-1,1-diphosphonic acid]",Second Oxidation Pot.,[1],1.45 V
same,Second Reduction Pot.,[1],−0.54 V

# From article PMC12609950, “Evaluation of ^161Tb-Labeled Diphosphonates as Potential Bone-Targeting Agents” (International Journal of Molecular Sciences, 2025)
